{"source": "patent US20130004966A1", "about": "“STRUCTURE OF CYTOKININS AND CYTOKININ RECEPTORS, AND MODULATION OF CYTOKININ SIGNALING” (Salk Institute for Biological Studies (027731), priority 2011, published 2013)", "key": {"AHK4": {"target": "T1, AHK4 (Arabidopsis thaliana, UniProt Q9C5U0)", "T1 construct": "host or cells: E. coli", "T1 sequence (Q9C5U0 24-1080 limits assumed)": "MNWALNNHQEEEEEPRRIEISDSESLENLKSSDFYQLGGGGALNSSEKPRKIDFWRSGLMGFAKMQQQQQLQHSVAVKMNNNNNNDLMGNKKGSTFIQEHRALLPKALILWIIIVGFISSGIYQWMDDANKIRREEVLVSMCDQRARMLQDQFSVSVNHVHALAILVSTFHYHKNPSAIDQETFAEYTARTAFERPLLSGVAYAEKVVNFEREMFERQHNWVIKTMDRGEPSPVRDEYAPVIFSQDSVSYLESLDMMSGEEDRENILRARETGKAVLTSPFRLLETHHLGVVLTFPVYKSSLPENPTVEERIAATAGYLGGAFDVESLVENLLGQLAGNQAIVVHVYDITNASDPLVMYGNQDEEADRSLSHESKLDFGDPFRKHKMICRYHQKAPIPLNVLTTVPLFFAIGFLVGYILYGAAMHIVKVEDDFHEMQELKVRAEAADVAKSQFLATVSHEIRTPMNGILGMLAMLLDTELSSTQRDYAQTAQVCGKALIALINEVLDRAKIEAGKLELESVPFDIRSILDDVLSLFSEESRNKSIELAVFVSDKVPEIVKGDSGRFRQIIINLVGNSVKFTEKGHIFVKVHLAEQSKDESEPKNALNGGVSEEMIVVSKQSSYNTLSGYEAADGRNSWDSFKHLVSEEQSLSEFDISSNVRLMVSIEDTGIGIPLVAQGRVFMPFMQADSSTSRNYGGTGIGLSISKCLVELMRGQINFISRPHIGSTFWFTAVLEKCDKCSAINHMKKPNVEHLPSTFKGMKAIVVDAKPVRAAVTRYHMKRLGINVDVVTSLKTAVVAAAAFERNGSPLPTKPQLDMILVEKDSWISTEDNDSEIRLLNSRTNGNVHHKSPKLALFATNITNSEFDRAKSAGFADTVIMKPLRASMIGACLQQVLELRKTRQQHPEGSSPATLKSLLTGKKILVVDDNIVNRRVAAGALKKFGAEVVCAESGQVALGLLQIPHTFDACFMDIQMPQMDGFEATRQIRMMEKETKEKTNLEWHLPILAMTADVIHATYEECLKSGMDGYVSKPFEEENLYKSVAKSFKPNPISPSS", "details": "literature result, Romanov et al., J. Exp. Bot. 57:4051-4058 (2006); cited from earlier work"}, "[1]": {"assay": "Crystallization of purified AHK4 in the presence of tZr (difference density in ligand binding pocket)", "type": "physicochemical", "details": "no difference density for the ribose portion of tZr in the crystal complex", "text": "Protein Expression and Purification. A synthetic gene comprising the sensor domain of AHK4 (residues 126-395, numbering in accordance with the short splice-variant of AHK4) was codon-optimised for expression in E. coli (Geneart, Regensburg, Germany). The Ncol/Notl digested synthetic fragment was inserted into a modified pET21d (Novagen) plasmid providing N-terminal 7xHis and Strep II affinity tags and expressed as a SUMO fusion protein in E. coli Origami (DE3) cells (Novagen). Cells grown to an OD600nm of 0.8 were induced with 0.3 mM isopropyl-β-D-thiogalactopyranoside in Terrific Broth at 16° C. for 22 h. Cells were collected by centrifugation at 4,500 xg for 30 min, washed in PBS buffer, incubated with 100 mg lysozyme for 1 h at room temperature and snap-frozen in liquid nitrogen. For protein purification cells were thawn in buffer A (25 mM Tris, pH 7.6, 500 mM NaCl, 15 mM Imidazole and, if applicable, 0.1 mM of the respective cytokinin), lysed by sonication, and centrifuged at 75,000 xg for 90 min. The supernatant was incubated in batch with 5 mL HIS-Select Cobalt Affinity Gel (Sigma), washed with buffer A and eluted in buffer A supplemented with 200 mM imidazole. The fusion protein was dialysed against buffer B (25 mM Tris, pH 8.0, 300 mM NaCl, 1 mM EDTA) and then loaded onto a 1 mL Strep-Tactin Superflow high capacity cartridge (IBA, Gottingen, Germany). […]"}}, "data": [{"smiles": "C/C(=C\\CNc1ncnc2c1ncn2[C@@H]1O[C@H](CO)[C@@H](O)[C@H]1O)CO", "note": "(relative stereo) [tZr, trans-zeatin riboside]", "values": [{"measurement": "binding affinity to AHK4", "setting": "AHK4", "value": "high affinity"}, {"measurement": "stability of ligand during purification with AHK4", "setting": "[1]", "value": "underwent hydrolysis during purification"}]}]}
